Test results published in PMC6509344, “Novel CMKLR1 Inhibitors for Application in Demyelinating Disease” (Scientific Reports, 2019).

Experiments:
(hu)CMKLR1 L1.2 cells = assay: Chemotaxis assay toward huChemerin; format: cell-based, human; details: Homo sapiens; (hu)CMKLR1 L1.2 cells migrating toward huChemerin, 2 h; read-out: Chemotaxis IC50 mean ± SEM (n)
Description: (hu)CMKLR1 transfectants (generated in L1.2 pre-B cell lymphoma cells) were grown in RPMI 1640 (Corning) supplemented with L-glutamine, penicillin-streptomycin, and 10% BCS and G418-sulfate (KSE Scientific). DiscoverX PathHunter® CHO-K1 CMKLR1 β-Arrestin Cells were grown in RPMI lacking phenol red (Gibco, Life Technologies), supplemented with L-glutamine, penicillin-streptomycin, sodium pyruvate, non-essential amino acid, BCS, hygromycin, and G418-sulfate.
(hu)CMKLR1 L1.2 cells at 1 × 10^6 cell/ml were treated with 5 mM sodium butyrate (Sigma) overnight to induce hCMKLR1 expression. The next day, cells were washed in migration media (RPMI + 0.5%BSA) and resuspended at 1.5–3 × 10^6 cell/ml. Cells were pre-incubated at RT for 10 min with various concentrations of α-NETA or test compounds (α-NETA and test compounds were reconstituted in DMSO; final DMSO concentration in each well was 0.1%). 100 ul of cells were added to the upper chamber of a 24-well transwell plate (5 um pore size, Costar). Cells were allowed to migrate toward huChemerin ([…] in migration media, bottom chamber) for 2 h, 37 °C, 5% CO2. The number of migrated cells was quantified by flow cytometry (BD LSR2), and live cells were distinguished based on FSC × SSC properties. The background for this assay was typically low with 0 cells migrating to the buffer alone. For each independent trial, data was normalized to the maximum migration per compound tested and an IC50 value was generated using GraphPad Prism software. The average IC50 value for n independent trials (as specified in the table) is reported.

Cyp2B6 = target: T1, Cyp2B6 (Homo sapiens, UniProt P20813); assay: Cyp enzyme inhibition in human liver microsomes; format: in vitro ADME; details: 30 min pre-incubation
T1 construct: tissue Cyprotex/Evotec AG; host or cells: human liver microsomes
T1 sequence (P20813 1-491): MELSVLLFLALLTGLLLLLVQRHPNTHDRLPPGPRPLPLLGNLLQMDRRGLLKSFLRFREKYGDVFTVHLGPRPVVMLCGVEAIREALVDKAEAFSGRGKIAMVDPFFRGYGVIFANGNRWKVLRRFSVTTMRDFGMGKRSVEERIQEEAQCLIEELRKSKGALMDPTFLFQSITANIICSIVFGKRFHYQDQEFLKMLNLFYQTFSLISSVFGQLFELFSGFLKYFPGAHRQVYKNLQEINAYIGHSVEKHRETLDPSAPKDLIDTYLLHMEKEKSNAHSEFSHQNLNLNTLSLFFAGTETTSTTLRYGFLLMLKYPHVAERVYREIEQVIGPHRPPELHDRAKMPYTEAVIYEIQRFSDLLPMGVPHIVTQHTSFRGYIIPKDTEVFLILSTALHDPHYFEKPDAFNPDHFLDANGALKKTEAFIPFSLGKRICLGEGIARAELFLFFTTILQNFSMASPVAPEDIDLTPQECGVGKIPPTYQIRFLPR

Cyp2C19 = target: T2, Cyp2C19 (Homo sapiens, UniProt P33261); assay: Cyp enzyme inhibition in human liver microsomes; format: in vitro ADME; details: 30 min pre-incubation
T2 construct: tissue Cyprotex/Evotec AG; host or cells: human liver microsomes
T2 sequence (P33261 whole entry): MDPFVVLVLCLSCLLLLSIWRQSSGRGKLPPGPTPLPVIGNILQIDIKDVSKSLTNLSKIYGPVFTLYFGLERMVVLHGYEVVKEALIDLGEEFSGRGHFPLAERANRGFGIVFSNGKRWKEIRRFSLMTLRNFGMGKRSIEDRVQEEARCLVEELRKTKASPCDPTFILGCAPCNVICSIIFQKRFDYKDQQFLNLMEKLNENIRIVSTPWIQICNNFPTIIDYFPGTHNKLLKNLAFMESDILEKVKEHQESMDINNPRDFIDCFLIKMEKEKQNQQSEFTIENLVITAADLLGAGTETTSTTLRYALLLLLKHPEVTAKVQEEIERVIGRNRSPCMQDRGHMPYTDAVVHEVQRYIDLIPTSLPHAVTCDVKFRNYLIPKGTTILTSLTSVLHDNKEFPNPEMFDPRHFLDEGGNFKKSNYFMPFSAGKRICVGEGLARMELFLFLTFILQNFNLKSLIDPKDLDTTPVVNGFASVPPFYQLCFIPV

[1] = test system: Pregnane X receptor (PXR); assay: Cyp induction: PXR luciferase reporter in human hepatoma cell line; format: cell-based; details: concentrations up to 50 uM
Description: Pregnane X receptor (PXR) activation was used as a marker of Cyp induction. An engineered human hepatoma cell line with a PXR luciferase reporter was incubated with the indicated concentrations of α-NETA, Rifampicin (positive control), or DMSO (negative control), and luciferase activity assessed (Cyprotex/Evotec AG).

hERG potassium channel = target: T3, hERG potassium channel (Homo sapiens, UniProt Q12809); assay: hERG inhibition, patch-clamp with CHO-hERG transfectants; format: cell-based; details: hERG tail current, 0.008-25 uM
T3 construct: host or cells: CHO
T3 sequence (Q12809 whole entry): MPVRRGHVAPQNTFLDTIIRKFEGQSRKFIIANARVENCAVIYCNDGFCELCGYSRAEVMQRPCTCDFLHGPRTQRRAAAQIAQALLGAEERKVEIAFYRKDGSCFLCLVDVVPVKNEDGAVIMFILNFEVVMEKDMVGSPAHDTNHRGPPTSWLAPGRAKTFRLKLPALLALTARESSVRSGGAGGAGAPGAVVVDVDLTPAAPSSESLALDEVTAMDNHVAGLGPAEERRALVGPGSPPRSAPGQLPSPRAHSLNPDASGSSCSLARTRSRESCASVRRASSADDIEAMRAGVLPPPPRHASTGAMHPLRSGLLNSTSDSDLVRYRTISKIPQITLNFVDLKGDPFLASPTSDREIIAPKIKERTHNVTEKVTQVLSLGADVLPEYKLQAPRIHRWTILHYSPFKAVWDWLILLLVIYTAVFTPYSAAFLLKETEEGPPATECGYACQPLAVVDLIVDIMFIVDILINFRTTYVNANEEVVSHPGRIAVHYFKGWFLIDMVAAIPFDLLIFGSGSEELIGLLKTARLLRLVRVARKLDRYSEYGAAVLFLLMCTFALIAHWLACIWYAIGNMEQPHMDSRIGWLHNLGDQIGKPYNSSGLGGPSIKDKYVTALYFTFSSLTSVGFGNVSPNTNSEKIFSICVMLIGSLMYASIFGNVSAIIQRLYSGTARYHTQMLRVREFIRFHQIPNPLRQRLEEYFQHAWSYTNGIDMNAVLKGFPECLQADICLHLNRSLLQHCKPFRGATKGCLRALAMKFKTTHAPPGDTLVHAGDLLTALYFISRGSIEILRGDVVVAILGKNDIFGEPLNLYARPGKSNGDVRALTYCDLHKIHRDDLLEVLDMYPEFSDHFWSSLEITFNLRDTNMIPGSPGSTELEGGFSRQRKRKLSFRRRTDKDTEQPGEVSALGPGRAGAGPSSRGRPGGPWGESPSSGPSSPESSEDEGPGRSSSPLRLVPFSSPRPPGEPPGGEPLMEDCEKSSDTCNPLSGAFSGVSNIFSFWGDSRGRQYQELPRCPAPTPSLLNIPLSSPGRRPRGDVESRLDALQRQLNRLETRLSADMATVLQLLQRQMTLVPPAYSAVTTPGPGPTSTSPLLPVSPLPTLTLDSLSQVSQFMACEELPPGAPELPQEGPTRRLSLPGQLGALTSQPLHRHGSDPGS
Description: A patch-clamp assay with single CHO-hERG cell transfectants were used to quantify potential α-NETA-dependent hERG inhibition (2–3 cells per compound concentration). […] The cell was depolarized, and the hERG tail current was measured, and IC50 determined (Cyprotex/Evotec AG).

Work on `C[N+](C)(C)CCC(=O)c1cccc2ccccc12.[I-]` [α-NETA, 2-(α-naphthoyl) ethyltrimethylammonium iodide] yielded an IC50 ((hu)CMKLR1 L1.2 cells) of 37 ± 8.9 µM, an IC50 (Cyp2B6) of 0.12 µM and an IC50 (Cyp2C19) of 84 µM. The “PXR activation (marker of Cyp induction)” value [1] was “did not induce substantial PXR activity” and the IC50 (hERG potassium channel) was 10.4 µM.
